Data on one compound can be found in ChEMBL document CHEMBL1158543, “Symmetrical alpha-bromoacryloylamido diaryldienone derivatives as a novel series of antiproliferative agents. Design, synthesis and biological evaluation” (Bioorg Med Chem Lett, 2010).

Common to all, as to type: functional
Experiment [1] concerns HeLa. As to the kind of experiment: Cell cycle arrest in human HeLa cells assessed as accumulation at sub-G1 phase at 1 uM after 48 hrs by flow cytometry.
For experiment [2], the system named is HeLa. As to the kind of experiment: Cell cycle arrest in human HeLa cells assessed as accumulation at G1 phase at 0.25 uM after 48 hrs by flow cytometry.
The test system of experiment [3] is HeLa. As to the kind of experiment: Cell cycle arrest in human HeLa cells assessed as accumulation at G1 phase at 1 uM after 48 hrs by flow cytometry.
The test system of experiment [4] is HeLa. Nature of the experiment: Cell cycle arrest in human HeLa cells assessed as accumulation at G2M phase at 0.5 uM after 48 hrs by flow cytometry.
Experiment [5] relates to HeLa. As to the kind of experiment: Cell cycle arrest in human HeLa cells assessed as accumulation at G2M phase at 1 uM after 48 hrs by flow cytometry. (In general: Flow cytometry measures light scatter and fluorescence of single cells or particles in a stream.)
For experiment [6], the system named is HeLa. As to the kind of experiment: Cell cycle arrest in human HeLa cells assessed as accumulation at G2M phase at 0.25 uM after 48 hrs by flow cytometry.
Experiment [7] deals with HeLa. As to the kind of experiment: Cell cycle arrest in human HeLa cells assessed as accumulation at S phase at 0.5 uM after 48 hrs by flow cytometry.
Experiment [8] concerns HeLa. Nature of the experiment: Cell cycle arrest in human HeLa cells assessed as accumulation at G1 phase at 0.5 uM after 48 hrs by flow cytometry.
The test system of experiment [9] is HeLa. As to the kind of experiment: Cell cycle arrest in human HeLa cells assessed as accumulation at sub-G1 phase at 0.25 uM after 48 hrs by flow cytometry.
In experiment [10] the test system is HeLa. Nature of the experiment: Cell cycle arrest in human HeLa cells assessed as accumulation at S phase at 0.25 uM after 48 hrs by flow cytometry.
Experiment [11] deals with HeLa. Nature of the experiment: Cell cycle arrest in human HeLa cells assessed as accumulation at sub-G1 phase at 0.5 uM after 48 hrs by flow cytometry.
The test system of experiment [12] is HeLa. As to the kind of experiment: Cell cycle arrest in human HeLa cells assessed as accumulation at S phase at 1 uM after 48 hrs by flow cytometry.

For the compound `C=C(Br)C(=O)Nc1ccc(/C=C/C(=O)c2ccc(OC)cc2)cc1`, the Activity was 22.3% in [1]; 56.1% in experiment [2]; 26.8% in experiment [3]; 44.6% in experiment [4]; 47.5% in experiment [5]; 13.1% in experiment [6]. In addition, the Activity was 15.3% in [7]; 37.5% in experiment [8]; 6.2% in experiment [9]; 30.8% in experiment [10]; 30.6% in [11]; 25.6% in [12].
